Test results as given in US6914045B2, “Glycopeptide antibiotics” (Wyeth Holdings Corporation, priority 2001, dated 2005).
In brackets after ≈: the same amount, converted by molar mass.

Tests used:
Test in all cases: in vitro antibacterial evaluation, MIC by broth dilution
Format in all cases: cell-based
[1] = test system: Escherichia coli; settings: 18 hours at 35° C.
[2] = test system: Staphylococcus sp.; settings: broth dilution, 18 hours at 35° C.; for MIC Staphylococcus aureus (GC 1131): strain GC 1131
Experimental: (§1) Methods for in vitro Antibacterial Evaluation (Table 1)
(§2) The minimum inhibitory concentration (MIC), the lowest concentration of the antibiotic which inhibits growth of the test organism, is determined by the broth dilution method using Muller-Hinton II […] (Baltimore Biological Laboratories) following the recommendations of the National Committee for Clinical Laboratory Standards [Methods for dilution antimicrobial susceptibility tests for bacteria that grow aerobically, approved standard M7-A2, National Committee for Clinical Laboratory Standards, Villanova, Pa.].
(§3) An inoculum level of 5×10^5 CFU/mL, and a range of antibiotic concentrations (64-0.06 μg/mL) is used. […] The test organisms include a spectrum of Gram-positive bacteria comprised of Staphylococcus sp., Streptococcus sp. and Enterococcus sp. These organisms include recent clinical isolates that are resistant to methicillin, penicillin and/or vancomycin.

[3] = test system: Enterococcus sp.; settings: broth dilution, 18 hours at 35° C.
Experimental: as §1, §2, §3

[4] = test system: Streptococcus sp.; settings: broth dilution, 18 hours at 35° C.
Experimental: as §1, §2, §3

With `CC(c1ccc(Cl)cc1)C1NC(=O)CNC(=O)C(CO)NC(=O)C(C(O)C2CNC(=N)N2C2OC(CO)C(O)C(O)C2O)NC(=O)C(C(O)C2CNC(=N)N2)NC(=O)C(Cc2ccc(OC3OC(CO)C(OC4OC5COC(c6ccccc6)OC5C(O)C4O)C(O)C3O)cc2)NC1=O` (centres unmarked) [Example 195] the “MIC Escherichia coli (ATCC 25922)” value [1] was over 0.5 µg/mL, the “MIC Escherichia coli (GC 4559)” value [1] was over 0.5 µg/mL and the “MIC Escherichia coli (GC 4560)” value [1] was 0.5 µg/mL (≈ 0.353 µM). The “MIC Staphylococcus aureus (GC 1131)” value ([2]; inoculum 5×10^5 CFU/mL) was 0.5 µg/mL (≈ 0.353 µM), the “MIC Staphylococcus aureus (ATCC 29213)” value ([2]; strain ATCC 29213) was 0.5 µg/mL (≈ 0.353 µM) and the “MIC Staphylococcus aureus (GC 1131)” value [2] was 0.5 µg/mL (≈ 0.353 µM). The “MIC Staphylococcus aureus (GC 3051)” value ([2]; strain GC 3051) was 0.5 µg/mL (≈ 0.353 µM), the “MIC Staphylococcus aureus (GC 3053)” value ([2]; strain GC 3053) was 0.5 µg/mL (≈ 0.353 µM) and the “MIC Staphylococcus aureus (GC 4541)” value ([2]; strain GC 4541) was 0.5 µg/mL (≈ 0.353 µM). The “MIC Staphylococcus aureus (GC 4542)” value ([2]; strain GC 4542) was 0.5 µg/mL (≈ 0.353 µM), the “MIC Staphylococcus aureus-SMITH (GC 4543)” value ([2]; strain GC 4543) was 0.5 µg/mL (≈ 0.353 µM) and the “MIC Staphylococcus aureus (GC 4544)” value ([2]; strain GC 4544) was 0.5 µg/mL (≈ 0.353 µM). For the same compound, the “MIC Staphylococcus aureus (GC 4545)” value ([2]; strain GC 4545) was 0.5 µg/mL (≈ 0.353 µM), the “MIC Staphylococcus haemolyticus (GC 4546)” value ([2]; strain GC 4546) was 2 µg/mL (≈ 1.41 µM) and the “MIC Coagulase Negative Staphylococcus (GC 4547)” value ([2]; strain GC 4547) was 4 µg/mL (≈ 2.82 µM). The “MIC Coagulase Negative Staphylococcus (GC 4548)” value ([2]; strain GC 4548) was 2 µg/mL (≈ 1.41 µM), the “MIC Coagulase Negative Staphylococcus (GC 4549)” value ([2]; strain GC 4549) was 1 µg/mL (≈ 0.705 µM) and the “MIC Coagulase Negative Staphylococcus (GC 4551)” value ([2]; strain GC 4551) was 4 µg/mL (≈ 2.82 µM). The “MIC Coagulase Negative Staphylococcus (GC 6257)” value ([2]; strain GC 6257) was 2 µg/mL (≈ 1.41 µM), the “MIC Enterococcus avium (GC 4558)” value [3] was 0.5 µg/mL (≈ 0.353 µM) and the “MIC Enterococcus faecalis (ATCC 29212)” value [3] was 0.5 µg/mL (≈ 0.353 µM). The “MIC Enterococcus faecalis (GC 2242)” value [3] was 0.5 µg/mL (≈ 0.353 µM), the “MIC Enterococcus faecalis (GC 2691)” value [3] was 0.5 µg/mL (≈ 0.353 µM) and the “MIC Enterococcus faecalis (GC 3059)” value [3] was 0.5 µg/mL (≈ 0.353 µM). The “MIC Enterococcus faecalis (GC 4552)” value [3] was 0.5 µg/mL (≈ 0.353 µM), the “MIC Enterococcus faecalis (GC 4553)” value [3] was 0.5 µg/mL (≈ 0.353 µM) and the “MIC Enterococcus faecalis (GC 4554)” value [3] was 0.5 µg/mL (≈ 0.353 µM). The “MIC Enterococcus faecalis (GC 6189)” value [3] was 0.5 µg/mL (≈ 0.353 µM), the “MIC Enterococcus faecium (GC 2243)” value [3] was 0.5 µg/mL (≈ 0.353 µM) and the “MIC Enterococcus faecium (GC 4556)” value [3] was 0.5 µg/mL (≈ 0.353 µM). The “MIC Enterococcus faecium (GC 4557)” value [3] was 0.5 µg/mL (≈ 0.353 µM), the “MIC Enterococcus faecalis (ATCC 29212)” value ([3]; inoculum 5×10^5 CFU/mL, strain ATCC 29212) was 0.5 µg/mL (≈ 0.353 µM) and the “MIC Enterococcus faecalis (GC 2242)” value ([3]; inoculum 5×10^5 CFU/mL, strain GC 2242) was 0.5 µg/mL (≈ 0.353 µM). The “MIC Enterococcus faecium (GC 2243)” value ([3]; inoculum 5×10^5 CFU/mL, strain GC 2243) was 0.5 µg/mL (≈ 0.353 µM), the “MIC Enterococcus faecalis (GC 2691)” value ([3]; inoculum 5×10^5 CFU/mL, strain GC 2691) was 0.5 µg/mL (≈ 0.353 µM) and the “MIC Enterococcus faecalis (GC 3059)” value ([3]; inoculum 5×10^5 CFU/mL, strain GC 3059) was 0.5 µg/mL (≈ 0.353 µM). The “MIC Enterococcus faecalis (GC 4552)” value ([3]; inoculum 5×10^5 CFU/mL, strain GC 4552) was 0.5 µg/mL (≈ 0.353 µM), the “MIC Enterococcus faecalis (GC 4553)” value ([3]; inoculum 5×10^5 CFU/mL, strain GC 4553) was 0.5 µg/mL (≈ 0.353 µM) and the “MIC Enterococcus faecalis (GC 4554)” value ([3]; inoculum 5×10^5 CFU/mL, strain GC 4554) was 0.5 µg/mL (≈ 0.353 µM). For the same compound, the “MIC Enterococcus faecium (GC 4556)” value ([3]; inoculum 5×10^5 CFU/mL, strain GC 4556) was 0.5 µg/mL (≈ 0.353 µM), the “MIC Enterococcus faecium (GC 4557)” value ([3]; inoculum 5×10^5 CFU/mL, strain GC 4557) was 0.5 µg/mL (≈ 0.353 µM) and the “MIC Enterococcus avium (GC 4558)” value ([3]; inoculum 5×10^5 CFU/mL, strain GC 4558) was 0.5 µg/mL (≈ 0.353 µM). For the same compound, the “MIC Enterococcus faecalis (GC 6189)” value ([3]; inoculum 5×10^5 CFU/mL, strain GC 6189) was 0.5 µg/mL (≈ 0.353 µM), the “MIC Streptococcus agalactiae (GC 4564)” value [4] was 0.5 µg/mL (≈ 0.353 µM) and the “MIC Streptococcus pneumoniae (ATCC 6301)” value [4] was 0.12 µg/mL (≈ 0.0846 µM). For the same compound, the “MIC Streptococcus pneumoniae (GC 1894)” value [4] was 0.12 µg/mL (≈ 0.0846 µM), the “MIC Streptococcus pneumoniae (GC 4565)” value [4] was 0.12 µg/mL (≈ 0.0846 µM) and the “MIC Streptococcus pyogenes (GC 4563)” value [4] was 0.12 µg/mL (≈ 0.0846 µM). For the same compound, the “MIC Streptococcus pneumoniae (ATCC 6301)” value ([4]; inoculum 5×10^5 CFU/mL, strain ATCC 6301) was 0.12 µg/mL (≈ 0.0846 µM), the “MIC Streptococcus pneumoniae (GC 1894)” value ([4]; inoculum 5×10^5 CFU/mL, strain GC 1894) was 0.12 µg/mL (≈ 0.0846 µM) and the “MIC Streptococcus pyogenes (GC 4563)” value ([4]; inoculum 5×10^5 CFU/mL, strain GC 4563) was 0.12 µg/mL (≈ 0.0846 µM). For the same compound, the “MIC Streptococcus agalactiae (GC 4564)” value ([4]; inoculum 5×10^5 CFU/mL, strain GC 4564) was 0.5 µg/mL (≈ 0.353 µM) and the “MIC Streptococcus pneumoniae (GC 4565)” value ([4]; inoculum 5×10^5 CFU/mL, strain GC 4565) was 0.12 µg/mL (≈ 0.0846 µM).
